Results taken from patent US20250230193A1, “CYCLIC COMPOUND HAVING SELECTIVE KRAS INHIBITORY EFFECT ON HRAS AND NRAS” (CHUGAI SEIYAKU KABUSHIKI KAISHA, priority 2022, published 2025).
Where a SMILES comes first, the peptide text is derived from it. Bridges are numbered along the chain shown (N, C = ends). [ ]: non-standard residue; d: D form. The star is where a group is joined. hPhe(3-Cl-4-CF3) = N[C@@H](CCc1ccc(C(F)(F)F)c(Cl)c1)C(=O)O; NPrPhe(4-CF3) = CCCN[C@@H](Cc1ccc(C(F)(F)F)cc1)C(=O)O; NMeGly(cPent) = CN[C@H](C(=O)O)C1CCCC1; Pro(4S-Me) = C[C@@H]1CN[C@H](C(=O)O)C1; Hyp = O=C(O)[C@@H]1C[C@@H](O)CN1; NMeD = CN[C@@H](CC(=O)O)C(=O)O; NMeL = CN[C@@H](CC(C)C)C(=O)O; Morpholide = C1CN(*)CCO1; Ac5c = NC1(C(=O)O)CCCC1; Aze = O=C(O)[C@@H]1CCN1; Sar = CNCC(=O)O

Key:
[1] = molecular target: GDP-bound NRAS wild-type protein (Homo sapiens, UniProt P01111); assay: Binding to NRAS by surface plasmon resonance (SPR), Single Cycle Kinetics; conditions: for NRAS/KRAS (ratio of KD value with respect to NRAS to KD value with respect to KRAS): GDP-bound NRAS wild-type vs GDP-bound KRAS wild-type
Chain of GDP-bound NRAS wild-type protein (P01111 whole entry): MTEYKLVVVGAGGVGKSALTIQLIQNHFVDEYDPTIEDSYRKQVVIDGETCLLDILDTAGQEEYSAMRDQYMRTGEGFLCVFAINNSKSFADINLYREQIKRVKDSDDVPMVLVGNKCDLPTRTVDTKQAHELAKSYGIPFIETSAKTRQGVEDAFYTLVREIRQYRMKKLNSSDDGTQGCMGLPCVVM

[2] = molecular target: GDP-bound HRAS wild-type protein (Homo sapiens, UniProt P01112); assay: Binding to HRAS by surface plasmon resonance (SPR), Single Cycle Kinetics; conditions: for HRAS/KRAS (ratio of KD value with respect to HRAS to KD value with respect to KRAS): GDP-bound HRAS wild-type vs GDP-bound KRAS wild-type
Chain of GDP-bound HRAS wild-type protein (P01112 whole entry): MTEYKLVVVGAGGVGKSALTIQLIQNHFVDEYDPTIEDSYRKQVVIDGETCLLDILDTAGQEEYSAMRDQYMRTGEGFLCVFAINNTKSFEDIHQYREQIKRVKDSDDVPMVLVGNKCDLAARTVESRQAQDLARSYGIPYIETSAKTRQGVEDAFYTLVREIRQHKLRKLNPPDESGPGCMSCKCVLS

[3] = KD ratio NRAS/KRAS, class symbols
[4] = KD ratio HRAS/KRAS, class symbols

Compound: CCCN1C(=O)CN(C)C(=O)CN(C)C(=O)[C@H]([C@@H](C)CC)NC(=O)[C@H](CC(C)C)N(C)C(=O)C[C@@H](C(=O)N2CCOCC2)N(C)C(=O)[C@H](C2CCCC2)N(C)C(=O)C2(CCCC2)NC(=O)[C@@H]2C[C@@H](OC)CN2C(=O)[C@H](CCc2ccc(C(F)(F)F)c(Cl)c2)NC(=O)CN(C)C(=O)[C@@H]1Cc1ccc(C(F)(F)F)cc1 [PP0262] ([NMeL]I[Sar][Sar][NPrPhe(4-CF3)][Sar][hPhe(3-Cl-4-CF3)][Hyp](Me)[Ac5c][NMeGly(cPent)][NMeD]-Morpholide; lactam N-11)
- NRAS/KRAS (ratio of KD for GDP-bound NRAS wild-type to KD for KRAS) ([1]; KD ratio NRAS/KRAS, SPR): B (a compound having 3 or more and less than 10 is denoted as B)
- HRAS/KRAS (ratio of KD for GDP-bound HRAS wild-type to KD for KRAS) ([2]; KD ratio HRAS/KRAS, SPR): B (a compound having 3 or more and less than 10 is denoted as B)

Compound: CCO[C@@H]1C[C@H]2C(=O)NC3(CC(C)(C)C3)C(=O)N(C)[C@@H](C(CC)CC)C(=O)N(C)[C@H](C(=O)N3CCCC3)CC(=O)N(C)[C@@H](C)C(=O)N[C@@H]([C@@H](C)CC)C(=O)N(C)CC(=O)N(C)[C@H]3C/C=C\CCN(C3=O)[C@@H](Cc3ccc(C)cc3)C(=O)N(C)CC(=O)N[C@@H](CCc3ccc(C(F)(F)F)c(OC)c3)C(=O)N2C1 [PP2169]
- NRAS/KRAS (ratio of KD value with respect to NRAS to KD value with respect to KRAS) ([1]; SPR): AA (a compound having 20 or more is denoted as AA)
- HRAS/KRAS (ratio of KD value with respect to HRAS to KD value with respect to KRAS) ([2]; SPR): A (a compound having 10 or more and less than 20 is denoted as A)

Compound: CCC[C@H]1C(=O)N[C@@H]([C@@H](C)CC)C(=O)N(C)CC(=O)N(C)[C@H]2C/C=C\CCN(C2=O)[C@@H](Cc2ccc(C)cc2)C(=O)N(C)CC(=O)N[C@@H](CCc2cc(Cl)c3sccc3c2)C(=O)N2C[C@H](OCC)C[C@H]2C(=O)NC2(CC(C)(C)C2)C(=O)N(C)[C@@H](C(CC)CC)C(=O)N(C)[C@H](C(=O)N(C)C)CC(=O)N1C [PP2890]
- NRAS/KRAS (ratio of KD value with respect to GDP-bound NRAS wild-type protein to KD value with respect to KRAS) [1, 3]: AA (a compound having 20 or more is denoted as AA)
- HRAS/KRAS (ratio of KD value with respect to GDP-bound HRAS wild-type protein to KD value with respect to KRAS) [2, 4]: A (a compound having 10 or more and less than 20 is denoted as A)

Compound: CCCN1C(=O)[C@@H]2CCN2C(=O)CN(C)C(=O)[C@H]([C@@H](C)CC)NC(=O)[C@H](CC(C)C)N(C)C(=O)C[C@@H](C(=O)N2CCOCC2)N(C)C(=O)[C@H](C2CCCC2)N(C)C(=O)C2(CCCC2)NC(=O)[C@@H]2C[C@H](C)CN2C(=O)[C@H](CCc2ccc(C(F)(F)F)c(Cl)c2)NC(=O)CN(C)C(=O)[C@@H]1Cc1ccc(C(F)(F)F)cc1 [PP0457] ([NMeL]I[Sar][Aze][NPrPhe(4-CF3)][Sar][hPhe(3-Cl-4-CF3)][Pro(4S-Me)][Ac5c][NMeGly(cPent)][NMeD]-Morpholide; lactam N-11)
- NRAS/KRAS (ratio of KD value with respect to GDP-bound NRAS wild-type protein to KD value with respect to KRAS) ([1]; KD ratio NRAS/KRAS, SPR): C (A compound having a KD ratio of 0.1 or more and less than 3 is denoted as C)
- HRAS/KRAS (ratio of KD value with respect to GDP-bound HRAS wild-type protein to KD value with respect to KRAS) ([2]; KD ratio HRAS/KRAS, SPR): B (a compound having 3 or more and less than 10 is denoted as B)

Compound: CC[C@H](C)[C@@H]1NC(=O)[C@H](CC(C)C)N(C)C(=O)C[C@@H](C(=O)N2CCOCC2)N(C)C(=O)[C@H](C2CCCC2)N(CC)C(=O)C2(CCCC2)NC(=O)[C@@H]2CCCN2C(=O)[C@H](CCc2cc(F)c(C(F)(F)F)c(F)c2)NC(=O)CN(C)C(=O)[C@H](Cc2ccc(C(F)(F)F)cc2)N2CCCC[C@@H](C2=O)N(C)C(=O)CN(C)C1=O [PP0538]
- NRAS/KRAS (ratio of KD value with respect to GDP-bound NRAS wild-type protein to KD value with respect to KRAS) ([1]; KD ratio NRAS/KRAS, SPR): B (a compound having 3 or more and less than 10 is denoted as B)
- HRAS/KRAS (ratio of KD value with respect to GDP-bound HRAS wild-type protein to KD value with respect to KRAS) ([2]; KD ratio HRAS/KRAS, SPR): B (a compound having 3 or more and less than 10 is denoted as B)

Compound: CCC[C@H]1C(=O)N[C@@H]([C@@H](C)CC)C(=O)N(C2CC2)CC(=O)N(C)[C@H]2C/C=C\CCN(C2=O)[C@@H](Cc2ccc(C(F)(F)F)cc2)C(=O)N(C)CC(=O)N[C@@H](CCc2ccc(Cl)c(Cl)c2)C(=O)N2C[C@H](OCC)C[C@H]2C(=O)NC2(CC(C)(C)C2)C(=O)N(C)[C@@H](CC2CC2)C(=O)N(C)[C@H](C(=O)N(C)C)CC(=O)N1C [PP2817]
- NRAS/KRAS (ratio of KD value with respect to GDP-bound NRAS wild-type protein to KD value with respect to KRAS) [1, 3]: A (a compound having 10 or more and less than 20 is denoted as A)
- HRAS/KRAS (ratio of KD value with respect to GDP-bound HRAS wild-type protein to KD value with respect to KRAS) [2, 4]: A (a compound having 10 or more and less than 20 is denoted as A)

Compound: CC[C@H](C)[C@@H]1NC(=O)[C@H](CC)N(C)C(=O)C[C@@H](C(=O)N(C)C)N(C)C(=O)[C@H](C2CCCC2)N(C)C(=O)C2(CCC2)NC(=O)[C@H](CC2CCCCC2)N(C)C(=O)[C@H](CCc2cc(F)c(C(F)(F)F)c(F)c2)NC(=O)CN(C)C(=O)[C@H](Cc2ccc(C(F)(F)F)cc2)N2CC/C=C\C[C@@H](C2=O)N(C)C(=O)CN(C)C1=O [PP1149]
- NRAS/KRAS (ratio of KD value with respect to NRAS to KD value with respect to KRAS) ([1]; KD ratio, SPR): A (a compound having 10 or more and less than 20 is denoted as A)
- HRAS/KRAS (ratio of KD value with respect to HRAS to KD value with respect to KRAS) ([2]; KD ratio, SPR): A (a compound having 10 or more and less than 20 is denoted as A)
